Results as given in patent US20140296212A1, “SUBSTITUTED PHENOXYPROPYLCYCLOAMINE DERIVATIVES AS HISTAMINE-3 (H3) RECEPTOR LIGANDS” (CEPHALON, INC., priority 2009, published 2014).

What was measured:
[1] = target: T1, rat histamine H3 receptor (Rattus norvegicus, UniProt Q9QYN8); assay: Rat H3 radioligand binding ([3H]-N-alpha-methylhistamine, SPA); conditions: membranes of CHO-A3 cells expressing rat H3; [3H]-N-alpha-methylhistamine; read-out: Rat H3 Ki
T1 construct: encoding the entire 445-amino-acid rat histamine H3 receptor; expressed in transfected cells
T1 sequence (Q9QYN8 whole entry): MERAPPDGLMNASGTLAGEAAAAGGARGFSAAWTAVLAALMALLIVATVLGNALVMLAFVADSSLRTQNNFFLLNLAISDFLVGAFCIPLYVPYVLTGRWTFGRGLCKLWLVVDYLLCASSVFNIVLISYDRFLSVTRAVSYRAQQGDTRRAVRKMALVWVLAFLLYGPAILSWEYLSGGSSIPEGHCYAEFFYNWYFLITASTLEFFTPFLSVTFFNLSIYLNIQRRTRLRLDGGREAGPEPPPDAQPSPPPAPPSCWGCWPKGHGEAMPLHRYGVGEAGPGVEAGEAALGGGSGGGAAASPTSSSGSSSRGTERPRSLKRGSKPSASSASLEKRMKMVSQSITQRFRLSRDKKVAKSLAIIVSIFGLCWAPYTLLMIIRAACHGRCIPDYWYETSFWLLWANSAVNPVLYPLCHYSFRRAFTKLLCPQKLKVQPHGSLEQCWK
Summary of the method: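 Membranes from CHO-A3 cells stably expressing full-length rat H3 receptor (445 aa) incubated with ~1 nM [3H]-N-alpha-methylhistamine and compound (0.01 nM–30 μM) in 50 mM Tris HCl pH 7.4, 5 mM MgCl2, 0.1% BSA, 4 h, room temperature; SPA bead read-out. Non-specific binding defined with 10 μM clobenpropit.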

human H3 receptor = target: T2, human H3 receptor (Homo sapiens, UniProt Q9Y5N1); assay: Human H3 radioligand binding ([3H]-N-alpha-methylhistamine, SPA); conditions: membranes of CHO cells expressing human H3
T2 construct: expressed in transfected cells
T2 sequence (Q9Y5N1 whole entry): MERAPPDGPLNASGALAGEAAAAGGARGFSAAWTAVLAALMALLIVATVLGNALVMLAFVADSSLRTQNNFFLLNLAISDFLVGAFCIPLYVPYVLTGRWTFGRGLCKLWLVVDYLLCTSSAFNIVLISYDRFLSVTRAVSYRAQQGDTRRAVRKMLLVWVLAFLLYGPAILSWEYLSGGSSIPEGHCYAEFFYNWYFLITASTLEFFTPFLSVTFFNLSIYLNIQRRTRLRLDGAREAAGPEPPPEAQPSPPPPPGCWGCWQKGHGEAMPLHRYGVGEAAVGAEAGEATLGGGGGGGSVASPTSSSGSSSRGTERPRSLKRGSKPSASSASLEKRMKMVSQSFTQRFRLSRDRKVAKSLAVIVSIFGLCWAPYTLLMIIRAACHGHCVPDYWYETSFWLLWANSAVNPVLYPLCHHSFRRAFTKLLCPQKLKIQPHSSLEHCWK
Summary of the method: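 Membranes from H3-expressing cells (10 μg protein/well) in 50 mM Tris HCl pH 7.4, 5 mM MgCl2, 0.1% BSA with ~1 nM [3H]-N-alpha-methylhistamine and compound (0.01 nM–30 μM), SPA beads, 4 h, room temperature, dark. Non-specific binding defined with 10 μM clobenpropit; bound radioligand read by scintillation counting.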

| SMILES | Ki [1] | Ki (human H3 receptor) | melting point |
| --- | --- | --- | --- |
| C[C@@H]1CCCN1CCCOc1ccc(C(=O)CN2CCN(S(=O)(=O)c3ccccc3)CC2)cc1 [Example 69, 2-(4-Benzenesulfonyl-piperazin-1-yl)-1-{4-[3-((R)-2-methyl-pyrrolidin-1-yl)-propoxy]-phenyl}-ethanone] | 0.1 to 100 nM | 0.1 to 100 nM | 124 to 135 °C |
| C[C@@H]1CCCN1CCCOc1ccc(C(=O)CN2CCN(C(=O)c3ccc4ccccc4c3)CC2)cc1 [Example 109, 1-{4-(3-((R)-2-Methyl-pyrrolidin-1-yl)-propoxy]-phenyl}-2-[4-(naphthalene-2-carbonyl)-piperazin-1-yl]-ethanone] | 0.1 to 100 nM | 0.1 to 100 nM | 100.5 to 109.5 °C |
| CC1CCCC(C)N1CC(=O)c1ccc(OCCCN2CCC[C@H]2C)cc1 (stereo partly drawn) [Example 61, 2-(2,6-Dimethyl-piperidin-1-yl)-1-{4-[3-((R)-2-methyl-pyrrolidin-1-yl)-propoxy]-phenyl}-ethanone] | 0.1 to 100 nM | 0.1 to 100 nM | 127 to 135 °C |
| C[C@@H]1CCCN1CCCOc1ccc(C(=O)CN2CCN(C(=O)N3CCOCC3)CC2)cc1 [Example 70, 1-{4-[3-((R)-2-Methyl-pyrrolidin-1-yl)-propoxy]-phenyl}-2-[4-(morpholine-4-carbonyl)-piperazin-1-yl]-ethanone] | 0.1 to 100 nM | 0.1 to 100 nM | 116 to 125 °C |
| CC1CCC(C)N1CC(=O)c1ccc(OCCCN2CCC[C@H]2C)cc1 (stereo partly drawn) [Example 58, 2-(2,5-Dimethyl-pyrrolidin-1-yl)-1-{4-[3-((R)-2-methyl-pyrrolidin-1-yl)-propoxy]-phenyl}-ethanone] | 0.1 to 100 nM | 0.1 to 100 nM | 100 to 106 °C |
| C[C@@H]1CCCN1CCCOc1ccc(C(=O)CN2CCN(c3ncccn3)CC2)cc1 [Example 90, 1-{4-[3-((R)-2-Methyl-pyrrolidin-1-yl)-propoxy]-phenyl}-2-(4-pyrimidin-2-yl-piperazin-1-yl)-ethanone] | 0.1 to 100 nM | 0.1 to 100 nM | 112 to 114 °C |
| C[C@@H]1CCCN1CCCOc1ccc(C(=O)CN2CCN(C(=O)OCc3ccccc3)CC2)cc1 [Example 138, 4-(2-{4-[3-((R)-2-Methyl-pyrrolidin-1-yl)-propoxy]-phenyl}-2-oxo-ethyl)-piperazine-1-carboxylic acid benzyl ester] | 0.1 to 100 nM | 0.1 to 100 nM | 183 to 188 °C |
| CS(=O)(=O)N1CCN(CCCOc2ccc(C(=O)CN3CCOCC3)cc2)CC1 [Example 59, 1-{4-[3-(4-Methanesulfonyl-piperazin-1-yl)-propoxy]-phenyl}-2-morpholin-4-yl-ethanone] | > 1000 nM | > 1000 nM | 246 to 248 °C |
| C[C@@H]1CCCN1CCCOc1ccc(C(=O)CN2CCN(C(=O)Oc3ccc(F)cc3)CC2)cc1 [Example 149, 4-(2-{4-[3-((R)-2-Methyl-pyrrolidin-1-yl)-propoxy]-phenyl}-2-oxo-ethyl)-piperazine-1-carboxylic acid 4-fluoro-phenyl ester] | 0.1 to 100 nM | 0.1 to 100 nM | 234 to 236 °C |
| O=C(CN1CCOCC1)c1ccc(OCCCN2CCCCC2)cc1F [Example 65, 1-[2-Fluoro-4-(3-piperidin-1-yl-propoxy)-phenyl]-2-morpholin-4-yl-ethanone] | > 1000 nM | 101 to 500 nM | 170 to 172 °C |
| COC[C@@H]1CCCN1CCCOc1ccc(C(=O)CN2CCOCC2)cc1 [Example 76, 1-{4-[3-((S)-2-Methoxymethyl-pyrrolidin-1-yl)-propoxy]-phenyl}-2-morpholin-4-yl-ethanone] | > 1000 nM | > 1000 nM | 74 to 76 °C |
| C[C@@H]1CCCN1CCCOc1ccc(C(=O)CN2CCN(C(=O)c3cccn3C)CC2)cc1 [Example 84, 2-[4-(1-Methyl-1H-pyrrole-2-carbonyl)-piperazin-1-yl]-1-{4-[3-((R)-2-methyl-pyrrolidin-1-yl)-propoxy]-phenyl}-ethanone] | 0.1 to 100 nM | 0.1 to 100 nM | 221 to 224 °C |
| C[C@@H]1CCCN1CCCOc1ccc(C(=O)CN2CCN(C(=O)Oc3ccccc3)CC2)cc1 [Example 128, 4-(2-{4-[3-((R)-2-Methyl-pyrrolidin-1-yl)-propoxy]-phenyl}-2-oxo-ethyl)-piperazine-1-carboxylic acid phenyl ester] | 0.1 to 100 nM | 0.1 to 100 nM | 194 to 199 °C |

Other lines, results leading:

| Ki [1] | Ki (human H3 receptor) | melting point | SMILES |
| --- | --- | --- | --- |
| 0.1 to 100 nM | 0.1 to 100 nM | 208 to 210 °C | COC(=O)N1CCN(CC(=O)c2ccc(OCCCN3CCC[C@H]3C)cc2)CC1 [Example 82, 4-(2-{4-[3-((R)-2-Methyl-pyrrolidin-1-yl)-propoxy]-phenyl}-2-oxo-ethyl)-piperazine-1-carboxylic acid methyl ester] |
| 101 to 500 nM | 0.1 to 100 nM | 111 °C | C[C@@H]1CCCN1CCCOc1c(Cl)cc(C(=O)CN2CCN(C(=O)c3ccccc3)CC2)cc1Cl [Example 96, 2-(4-Benzoyl-piperazin-1-yl)-1-{3,5-dichloro-4-[3-((R)-2-methyl-pyrrolidin-1-yl)-propoxy]-phenyl}-ethanone] |
| 0.1 to 100 nM | 0.1 to 100 nM | 140 °C (dec.) | CC(C)C(=O)N1CCN(CC(=O)c2ccc(OCCCN3CCC[C@H]3C)c(Cl)c2)CC1 [Example 118, 1-[4-(2-{3-Chloro-4-[3-((R)-2-methyl-pyrrolidin-1-yl)-propoxy]-phenyl}-2-oxo-ethyl)-piperazin-1-yl]-2-methyl-propan-1-one] |
| 0.1 to 100 nM | 0.1 to 100 nM | 140 to 145 °C | C[C@@H]1CCCN1CCCOc1ccc(C(=O)CN2CCN(c3ccc(F)cc3)CC2)cc1 [Example 94, 2-[4-(4-Fluoro-phenyl)-piperazin-1-yl]-1-{4-[3-((R)-2-methyl-pyrrolidin-1-yl)-propoxy]-phenyl}-ethanone] |
| 0.1 to 100 nM | 0.1 to 100 nM | 88 to 90.5 °C | C[C@@H]1CCCN1CCCOc1ccc(C(=O)CN2CCN(C(=O)c3ccc(Cl)c(Cl)c3)CC2)cc1 [Example 129, 2-[4-(3,4-Dichloro-benzoyl)-piperazin-1-yl]-1-{4-[3-((R)-2-methyl-pyrrolidin-1-yl)-propoxy]-phenyl}-ethanone] |
| 0.1 to 100 nM | 0.1 to 100 nM | 81 °C | C[C@@H]1CCCN1CCCOc1ccc(C(=O)CN2CCN(C(=O)N(C)C)CC2)cc1F [Example 123] |
| 0.1 to 100 nM | 0.1 to 100 nM | 127 to 140 °C | C[C@@H]1CCCN1CCCOc1ccc(C(=O)CN2CCC(F)(F)CC2)cc1 [Example 44, 2-(4,4-Difluoro-piperidin-1-yl)-1-{4-[3-((R)-2-methyl-pyrrolidin-1-yl)-propoxy]-phenyl}-ethanone] |
| 0.1 to 100 nM | 0.1 to 100 nM | 230 to 233 °C | C[C@@H]1CCCN1CCCOc1ccc(C(=O)CN2CCN(c3ccc(C(F)(F)F)cc3)CC2)cc1 [Example 105, 1-{4-[3-((R)-2-Methyl-pyrrolidin-1-yl)-propoxy]-phenyl}-2-[4-(4-trifluoromethyl-phenyl)-piperazin-1-yl]-ethanone] |
| > 1000 nM | 101 to 500 nM | 168 °C | C[C@@H]1CCCN1CCCOc1c(Cl)cc(C(=O)CN2CCN(c3ccccc3)CC2)cc1Cl [Example 102] |
| 0.1 to 100 nM | 0.1 to 100 nM | 231.5 to 235 °C | Cc1cc(C(=O)CN2CCN(c3ncccn3)CC2)ccc1OCCCN1CCC[C@H]1C [Example 130, 1-{3-Methyl-4-[3-((R)-2-methyl-pyrrolidin-1-yl)-propoxy]-phenyl}-2-(4-pyrimidin-2-yl-piperazin-1-yl)-ethanone] |
| > 1000 nM | 0.1 to 100 nM | 102 °C | C[C@@H]1CCCN1CCCOc1c(Cl)cc(C(=O)CN2CCC(F)(F)CC2)cc1Cl [Example 98, 1-{3,5-Dichloro-4-[3-((R)-2-methyl-pyrrolidin-1-yl)-propoxy]-phenyl}-2-(4,4-difluoro-piperidin-1-yl)-ethanone] |
| 0.1 to 100 nM | 0.1 to 100 nM | 96 °C | C[C@@H]1CCCN1CCCOc1ccc(C(=O)CN2CCN(C(=O)c3ccccc3)CC2)cc1F [Example 120, 2-(4-Benzoyl-piperazin-1-yl)-1-{3-fluoro-4-[3-((R)-2-methyl-pyrrolidin-1-yl)-propoxy]-phenyl}-ethanone] |
| 0.1 to 100 nM | 0.1 to 100 nM | 137 to 145 °C | C[C@@H]1CCCN1CCCOc1ccc(C(=O)CN2CCNC(=O)C2)cc1 [Example 85, 4-(2-{4-[3-((R)-2-Methyl-pyrrolidin-1-yl)-propoxy]-phenyl}-2-oxo-ethyl)-piperazin-2-one] |
| 0.1 to 100 nM | 0.1 to 100 nM | 239 to 242 °C | C[C@@H]1CCCN1CCCOc1ccc(C(=O)CN2CCN(c3ccccn3)CC2)cc1 [Example 116, 1-{4-[3-((R)-2-Methyl-pyrrolidin-1-yl)-propoxy]-phenyl}-2-(4-pyridin-2-yl-piperazin-1-yl)-ethanone] |
| 0.1 to 100 nM | 0.1 to 100 nM | 120 to 126 °C | C[C@@H]1CCCN1CCCOc1ccc(C(=O)CN2CCN(C(=O)N(C)C)CC2)cc1 [Example 79, 4-(2-{4-[3-((R)-2-Methyl-pyrrolidin-1-yl)-propoxy]-phenyl}-2-oxo-ethyl)-piperazine-1-carboxylic acid dimethylamide] |
